This note sets out measurements from US20100286038A1, “FORMULATION CONTAINING CYCLIN-DEPENDENT KINASE INHIBITING COMPOUND AND METHOD OF TREATING TUMORS USING THE SAME” (priority 2007, published 2010).

The target of one data set is T1, PKCε (Homo sapiens, UniProt Q02156).
T1 construct: purchased Upstate
T1 sequence (Q02156 1-737): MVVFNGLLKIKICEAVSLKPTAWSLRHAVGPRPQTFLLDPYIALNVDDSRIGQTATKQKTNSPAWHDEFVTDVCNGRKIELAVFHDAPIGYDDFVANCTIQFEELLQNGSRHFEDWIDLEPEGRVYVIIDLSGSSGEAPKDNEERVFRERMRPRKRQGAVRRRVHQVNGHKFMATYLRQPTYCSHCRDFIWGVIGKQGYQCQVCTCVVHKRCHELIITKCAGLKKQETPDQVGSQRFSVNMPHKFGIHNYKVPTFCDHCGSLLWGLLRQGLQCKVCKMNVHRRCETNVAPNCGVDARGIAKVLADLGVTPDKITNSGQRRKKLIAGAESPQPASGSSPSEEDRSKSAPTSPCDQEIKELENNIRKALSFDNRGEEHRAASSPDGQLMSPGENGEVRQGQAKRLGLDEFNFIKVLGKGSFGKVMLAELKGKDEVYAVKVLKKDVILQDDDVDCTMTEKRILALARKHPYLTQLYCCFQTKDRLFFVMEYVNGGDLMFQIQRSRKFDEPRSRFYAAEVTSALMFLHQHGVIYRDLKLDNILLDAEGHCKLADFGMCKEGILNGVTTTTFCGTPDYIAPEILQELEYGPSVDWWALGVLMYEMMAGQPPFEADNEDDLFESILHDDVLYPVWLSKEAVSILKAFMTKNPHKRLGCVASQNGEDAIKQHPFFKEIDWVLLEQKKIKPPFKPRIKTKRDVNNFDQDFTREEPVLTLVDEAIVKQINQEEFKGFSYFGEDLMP
As to the kind of experiment: Upstate kinase Profiler counter-screening. It is filed as biochemical. (The purpose of a counterscreen is to sort out artefacts and off-target activity.)

The conditions of data set [1]: 40 mg/kg once per day for five days; blood on days 1 and 7 following the last dose. The protocol: The formulation was administered to BALB/c mice at a dosage level of 40 mg/kg once per day for five days. Blood samples were obtained on days 1 and 7 following the last dose and analyzed on an Advia 120 hematology analyzer immediately after diluting 1:5 in PBS. A full differential blood count was performed, including red blood cell analysis (including reticulocyte, variant count, and hemoglobin analyses), white blood cell analysis (including differential lineage counts and peroxidase staining) and a thrombopoiesis analysis.

The subject of a further data set is xenograft models. As to conditions: plasma trough concentrations of less than 25 nM for less than two hours.
Another data set has as its system H82 (SCLC). Briefly: xenograft tumor model.

With `CCc1cnn2c(NCc3ccc[n+]([O-])c3)cc(N3CCCC[C@H]3CCO)nc12` [Formula II], the “% remaining activity” value at PKCε (at 1 μM) is listed as 93%; at PKCε (at 10 μM), 88%. Further, the “effect on platelets or red blood cells” value in data set [1] is given as “No effect”. In the data set on xenograft models, the “effect on xenograft tumors” value is “tumor growth inhibition or regression”. In addition, the “% inhibition observed at dosage of 5 mg/kg Formula II” value stood at 56% in the data set with H82 (SCLC) (first Formula II column) and 65% in the data set on H82 (SCLC) (second Formula II column).
